One data set addresses T1, α4β1 Integrin (Homo sapiens, UniProt P05556+P13612).
T1 construct: endogenous in cells; host or cells: Jurkat cells
Description: α4β1 Integrin Adhesion Assay: Jurkat cell adhesion to human plasma fibronectin. The class given is cell-based. As to conditions: Jurkat cells. The procedure:
96 well plates (Costar 3590 EIA plates) were coated with human fibronectin (Gibco/BRL, cat #33016-023) at a concentration of 10 μg/mL overnight at 4° C. The plates were then blocked with a solution of bovine serum albumin (BSA; 0.3%) in saline. Jurkat™ cells (maintained in log phase growth) were labeled with Calcein AM according to the manufacturer's instructions, and suspended at a concentration of 2×10^6 cells/mL in Hepes/Saline/BSA. The cells were then exposed to test and control compounds for 30 minutes at room temperature before transfer to individual wells of the fibronectin coated plate. Adhesion was allowed to occur for 35 minutes at 37° C. The wells were then washed by gentle aspiration and pipetting with fresh saline. Fluorescence associated with the remaining adherent cells was quantified using a fluorescence plate reader at EX 485/EM 530.
Cell cultures were prepared by first splitting the stationary phase Jurkat™ cells at 1:10 on day one, and 1:2 on day two to perform assay on day 3. The cells split 1:10 on day one were split 1:4 on day 3 for a day 4 assay.
The assay plates were prepared by first making a working solution of Gibco/BRL Human Fibronectin (cat # 33016-023) in PBS++, at 10 μg/mL.
A Costar 3590 EIA plate was then coated with 50 μL/well for 2 hours at room temperature (thought it can also be left overnight at 4° C.). Finally the plate was asperated and blocked with Hepes/Saline Buffer, 100 μL/well, for 1 hour at RT followed by washing three times with 150 μL of PBS++.
Compound dilutions were accomplished by preparing 1:3 serial dilutions of compounds as follows. For each plate (4 compounds/plate) 600 μL were added to 4 Bio-Rad Titertubes in a Titertube rack. Enough compound was added to each appropriate tube to give a 2× concentration using methods well known in the art. Using Falcon Flexiplates, 100 μL of Hepes/Saline buffer or human serum were added to rows B through G. A multi-channel pipetter set to 180 μL was used to with four tips spaced evenly the pipetter. Each set of four tubes was mixed 5 times and 180 μL of 2× compound was transferred to the first column of each compound dilution in Row B, leaving Row A empty. 180 μL were added to the other wells in Row A. Serial dilutions were performed down the plate by transferring 50 μL to the next dilution and mixing 5 times, changing tips each time after mixing. Dilutions were stopped at Row F. Row G had no compound present.
A 20 μg/mL solution in Hepes/Saline buffer or human serum, of 21/6 antibody was the positive control and was set aside in a reagent trough to add to cell suspension plate.
The cell staining was accomplished by first harvesting the log-phase Jurkat™ cells by centrifugation in 50 mL tubes (1100 rpm for 5 minutes). The cells were resuspended in 50 mL PBS++, spun, and resuspend in 20 mL PBS++. The cells were stained by adding 20 μL of Calcein AM for 30 minutes R.T. The volume was brought to 50 mL with Hepes/Saline buffer and the cells were counted, spun, and resuspend to 2×10^6 cells/mL in Hepes/Saline buffer or human serum.
The compounds were incubated using the following procedure. In a new flexiplate, 65 μL of stained cells were added to Rows B through H. Then 65 μL of 2× compounds were added to the appropriate rows following the plate setup and mixed 3×. 65 μL of 2×-21/6 antibody were added to Row H and mixed 3×. Finally the plate was incubated at room temperature for 30 minutes.
Fibronectin adhesion was measured using a fluorescent plate reader at EX 485/EM 530 after the following work up procedure. After incubation, the cells were mixed 3× and 100 μL were transferred to the Fibronectin coated plates and incubated at 37° C. for about 35 minutes. Each plate was washed, row by row, by gently pipetting 100 μL of R.T. PBS++ down the sides of the wells and turning the plate 90 degrees to aspirate. This procedure was repeated for a total of 3 washes. Each well was filled with 100 μL after washing by pipetting down the side of the well. […]

Data set [1] is described as follows: Cassette dosing and serum analysis for determination of oral bioavailability. The class given is in vivo, rat. The conditions noted are these: male SD rats, oral cassette of 6 compounds, total dose 10 mg/kg, plasma at 4, 8, 12 h. The procedure:
The oral bioavailability was screened by dosing rats with a cassette, i.e. mixture of 6 compounds per dosing solution. The cassette included 5 test articles and a standard compound, for a total dose of 10 mg/kg. Each compound/test article was converted to the sodium salt with equimolar 1 N NaOH and dissolved in water at 2 mg/mL. The cassette was prepared by mixing equal volumes of each of the six solutions. The cassette dosing solution was mixed well and then the pH was adjusted to 7.5–9. The dosing solution was prepared the day before the study and stirred overnight at room temperature.
Male Sprague Dawley (SD) rats from Charles River Laboratories, 6–8 weeks old were used in this screen. Rats were quarantined for at least one day and had continuous access to food and water. On the night before the administration of the cassette, the rats were fasted for approximately 16 h.
Four SD rats were assigned in each cassette. A single dose of the dosing solution was administered orally to each rat. The dosing volume (5 mL/kg) and time were recorded and rats were fed 2 h after dosing.
Blood samples were collected via cardiac puncture at the following time points: 4 h, 8 h and 12 h. Immediately prior to blood collection, rats were anesthetized with CO2 gas within 10–20 seconds. After the 12-hour samples were collected, the rats were euthanized via CO2 asphyxiation followed by cervical dislocation.
Blood samples were kept in heparinized microtainer tubes under sub-ambient temperature (4° C.) before they were processed. Blood samples were centrifuged (10000 rpm for 5 minutes) and plasma samples were removed and stored in a −20° C. freezer until analyzed for drug levels. Drug levels in the plasma were analyzed using the following protocol for direct plasma precipitation.
The in vivo plasma samples were prepared in a 1.5 mL 96-well plate, by adding, in order, 100 μL of the test plasma, 150 μL of methanol, followed by vortexing for 10–20 seconds. 150 μL of 0.05 ng/μL of an Internal Standard in acetonitrile were added and vortexed for 30 seconds.
The standard curve samples were prepared in a 1.5 mL 96-well plate, by adding, in order, 100 μL of control mouse plasma, followed by 150 μL of methanol and vortexing for 10–20 seconds. 150 μL of 0.05 ng/μL of an Internal Standard in acetonitrile were added and vortexed for 30 seconds. The samples were spiked with 0–200 ng (10 concentrations) of the compound of interest in 50% methanol to obtain a standard curve range of 0.5 ng/mL–2,000 ng/mL. Again, the sample was vortexed for 30 seconds.
The samples were then spun for 20–30 minutes at 3000 rpm in an Eppendorf microfuge before 80–90% of supernatant was transferred into a clean 96-well plate. The organic solvent was then evaporated until the samples were dry (under N2 at 40° C./30–60 min (ZymarkTurbovap)).
The residue was then dissolved in […] mobile phase (50% CH3OH/0.1% TFA). LC/MS/MS was then run using a PE-Sciex API-3000 triple quadurpole mass spectrometer (SN0749707), Perkin-Elmer, Series200auto-sampler, and shimadzu 10A pump. Acquisition was done with PE-Sciex Analyst (v1.1) and data analysis and quantification were accomplished using PE-Sciex Analyst (v1.1). A 5–50 μL sample volume was injected onto a reverse phase ThermoHypersil DASH-18 column (Keystone 2.0×20 mm, 5 μm, PN: 8823025-701) using a mobile phase of 25% CH3OH, 0.1% TFA-100% CH3OH, 0.1% TFA. The run time was about 8 minutes at a flow rate of about 300 μL/minutes.
The Area Under the Curve (AUC) was calculated using the linear trapezoidal rule from t=0 to the last sampling time tx (see Handbook of Basic Pharmacokinetics, Wolfgang A. Ritschel and Gregory L. Kearns, 5th ed, 1999). AUC^0→tx═S((Cn+Cn+1)/2))·(tn+1−tn)[(μg/mL)h]
In the case of the cassette dosing paradigm, samples at 4, 8 and 12 h post extravascular dosing, the AUC was calculated from t=0 to t=12 h.

The mark [2] stands for this setting: IC50, Cell Adhesion to Human Plasma Fibronectin (With Human Serum), with human serum.
Where [3] appears, read: IC50, Cell Adhesion to Human Plasma Fibronectin (Without the Human Serum), without human serum.

T1 sequence (P13612 34-1032): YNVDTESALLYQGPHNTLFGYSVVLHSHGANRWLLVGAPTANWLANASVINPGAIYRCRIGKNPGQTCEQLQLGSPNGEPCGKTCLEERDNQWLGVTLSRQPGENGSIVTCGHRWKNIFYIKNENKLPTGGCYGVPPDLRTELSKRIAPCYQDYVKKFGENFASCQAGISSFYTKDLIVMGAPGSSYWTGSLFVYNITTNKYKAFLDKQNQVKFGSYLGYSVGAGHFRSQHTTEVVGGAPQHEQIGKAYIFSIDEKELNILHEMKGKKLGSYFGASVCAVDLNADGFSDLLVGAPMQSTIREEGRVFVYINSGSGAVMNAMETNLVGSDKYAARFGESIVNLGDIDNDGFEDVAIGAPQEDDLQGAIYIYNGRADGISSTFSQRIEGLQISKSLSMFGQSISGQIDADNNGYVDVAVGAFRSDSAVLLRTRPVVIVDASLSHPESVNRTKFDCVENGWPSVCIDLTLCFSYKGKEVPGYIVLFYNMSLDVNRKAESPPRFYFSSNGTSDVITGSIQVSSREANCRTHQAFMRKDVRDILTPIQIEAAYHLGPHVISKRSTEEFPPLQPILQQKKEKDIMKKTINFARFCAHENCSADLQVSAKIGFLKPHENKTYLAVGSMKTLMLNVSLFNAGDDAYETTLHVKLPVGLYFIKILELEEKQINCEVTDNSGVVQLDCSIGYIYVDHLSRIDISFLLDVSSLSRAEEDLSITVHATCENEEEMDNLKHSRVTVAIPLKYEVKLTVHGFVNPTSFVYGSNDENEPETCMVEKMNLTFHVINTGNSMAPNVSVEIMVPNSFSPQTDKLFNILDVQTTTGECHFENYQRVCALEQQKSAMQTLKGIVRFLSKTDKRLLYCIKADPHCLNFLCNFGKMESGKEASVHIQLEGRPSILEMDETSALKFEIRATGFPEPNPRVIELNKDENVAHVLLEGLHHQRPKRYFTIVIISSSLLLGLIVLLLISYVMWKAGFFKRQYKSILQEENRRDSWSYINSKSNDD
T1 sequence (P05556 21-798): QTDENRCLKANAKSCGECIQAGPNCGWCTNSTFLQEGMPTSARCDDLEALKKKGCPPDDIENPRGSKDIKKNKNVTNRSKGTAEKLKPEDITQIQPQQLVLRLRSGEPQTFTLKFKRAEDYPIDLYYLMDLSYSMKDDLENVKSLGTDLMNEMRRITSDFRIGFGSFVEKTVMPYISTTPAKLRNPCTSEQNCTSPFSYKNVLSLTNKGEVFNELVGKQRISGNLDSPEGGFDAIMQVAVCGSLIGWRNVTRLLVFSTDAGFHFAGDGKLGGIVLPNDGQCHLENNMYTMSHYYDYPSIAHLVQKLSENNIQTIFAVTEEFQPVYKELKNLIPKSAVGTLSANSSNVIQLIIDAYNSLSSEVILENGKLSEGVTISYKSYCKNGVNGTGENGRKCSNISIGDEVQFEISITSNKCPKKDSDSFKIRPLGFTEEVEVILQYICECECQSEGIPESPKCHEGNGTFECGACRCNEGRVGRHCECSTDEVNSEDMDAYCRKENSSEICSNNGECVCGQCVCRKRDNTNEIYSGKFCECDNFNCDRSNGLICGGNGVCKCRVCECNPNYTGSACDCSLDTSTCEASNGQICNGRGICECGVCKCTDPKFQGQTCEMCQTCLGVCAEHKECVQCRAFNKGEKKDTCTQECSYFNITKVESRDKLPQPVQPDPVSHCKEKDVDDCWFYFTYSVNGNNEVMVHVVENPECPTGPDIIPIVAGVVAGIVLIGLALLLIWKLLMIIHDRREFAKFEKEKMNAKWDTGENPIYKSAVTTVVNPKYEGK

Take `C#CCN(c1cnc(N(CC)CC)nc1NC(Cc1ccc(OC(=O)N(C)C)cc1)C(=O)O)S(=O)(=O)c1ccc(F)cc1F` (stereo not drawn) [Example 28, 2-{2-Diethylamino-5-[(2,4-difluorobenzenesulfonyl)propargylamino]pyrimidin-4-ylamino}-3-(4-dimethylcarbamoyloxyphenyl)propionic acid]: the concentration for half-maximal inhibition (IC50) against α4β1 Integrin (setting [2]) is 72.9 nM; on α4β1 Integrin (setting [3]) it was 6.34 nM. The “AUC (average AUC 0→12 h)” value in data set [1] is 0.7968 (μg/mL)h.

On to “2-{2-diethylamino-5-[(2-fluorobenzenesulfonyl)methylamino]pyrimidin-4-ylamino}-3-(4-dimethylcarbamoyloxyphenyl)propionic acid [Example 6]”, for which the “IC50, Cell Adhesion to Human Plasma Fibronectin (With Human Serum)” value (shortened to “IC50, Cell Adhesion … (With Human Serum)”) against α4β1 Integrin (with human serum) was 0.3138 µg/mL. Also, the “IC50, Cell Adhesion to Human Plasma Fibronectin (Without the Human Serum)” value (from here on “IC50, Cell Adhesion … (Without the Human Serum)”) against α4β1 Integrin (without human serum) was 0.000511 µg/mL. The “AUC (average AUC 0→12 h)” value in data set [1] is given as 0.6538 (μg/mL)h.

In the case of `CCN(CC)c1ncc(N(C)S(=O)(=O)c2ccc(Cl)c(Cl)c2)c(N[C@@H](Cc2ccc(OC(=O)N(C)C)cc2)C(=O)O)n1` [Example 4], the IC50 against α4β1 Integrin (setting [2]) was 625 nM; against α4β1 Integrin (setting [3]) it was 6.25 nM. The “AUC (average AUC 0→12 h)” value in data set [1] is listed as 0.5965 (μg/mL)h.

Consider “2-{2-diethylamino-5-[(4-fluorobenzenesulfonyl)ethylamino]pyrimidin-4-ylamino}-3-(4-dimethylcarbamoyloxyphenyl)propionic acid [Example 9]”, for which the “IC50, Cell Adhesion … (With Human Serum)” value at α4β1 Integrin (with human serum) came to 0.106 µg/mL. Moreover, the “IC50, Cell Adhesion … (Without the Human Serum)” value on α4β1 Integrin (without human serum) was determined as 0.001 µg/mL. Besides, in data set [1], the “AUC (average AUC 0→12 h)” value is 1.564 (μg/mL)h.

For `CCN(CC)c1ncc(N(C)S(=O)(=O)c2cc(Cl)cc(Cl)c2)c(N[C@@H](Cc2ccc(OC(=O)N(C)C)cc2)C(=O)O)n1` [Example 19], the 50% inhibitory concentration (IC50) is 133 nM against α4β1 Integrin (setting [2]) and 5.31 nM against α4β1 Integrin (setting [3]). For the same molecule, the “AUC (average AUC 0→12 h)” value in data set [1] was 0.0697 (μg/mL)h.

For “2-{2-diethylamino-5-[(3,4-difluorobenzenesulfonyl) ethylamino]pyrimidin-4-ylamino}-3-(4-dimethylcarbamoyloxyphenyl) propionic acid [Example 12]”, the “IC50, Cell Adhesion … (With Human Serum)” value against α4β1 Integrin (with human serum) was 0.06 µg/mL. Also, on α4β1 Integrin (without human serum), the “IC50, Cell Adhesion … (Without the Human Serum)” value amounted to 0.003 µg/mL. Further, in data set [1], the “AUC (average AUC 0→12 h)” value is listed as 0.8447 (μg/mL)h.

As to `CCN(CC)c1ncc(N(CC)S(=O)(=O)c2cc(Cl)cc(Cl)c2)c(N[C@@H](Cc2ccc(OC(=O)N(C)C)cc2)C(=O)O)n1` [Example 20], the figures for the IC50 on α4β1 Integrin (setting [2]) and on α4β1 Integrin (setting [3]) were 119 nM and 7.82 nM, respectively. Also, the “AUC (average AUC 0→12 h)” value in data set [1] was 0.0536 (μg/mL)h.

For the origin of these results see US7008949B2, “Heterocyclic compounds which inhibit leukocyte adhesion mediated by α4 integrins” (Elan Pharmaceuticals, Inc., priority 2003, dated 2006).
